Measurements reported in US4684664A, “Derivatives of β-(4-isocyano-1,2,3,4-diepoxycyclopentyl) acrylic acid” (Kureha Kagaku Kogyo Kabushiki Kaisha, priority 1984, dated 1987).
Values after ≈ are worked out from the molar mass of the structure shown.

What was measured:
Type in all cases: cell-based
[1] = system: Micrococcus luteus ATCC 9341; assay: Antibacterial activity, agar-dilution MIC, organism No. 25; conditions: Micrococcus luteus, ATCC9341; Organism No. 25, bouillon-agar; read-out: Minimum Inhibitory Concentration
Summary of the method: (§1)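 For each organism the specimen was serially diluted into bouillon agar, and inhibition was scored to give the MIC in μg/ml of culture medium.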

[2] = system: Klebsiella pneumoniae PCI-602; assay: Antibacterial activity, agar-dilution MIC, organism No. 7; conditions: Klebsiella pneumoniae, PCI602; Organism No. 7, bouillon-agar; read-out: Minimum Inhibitory Concentration
Summary of the method: as §1

[3] = system: Streptococcus pyogenes IFO 3340; assay: Antibacterial activity, agar-dilution MIC, organism No. 26; conditions: Streptococcus pyogenes, IFO3340; Organism No. 26, bouillon-agar; read-out: Minimum Inhibitory Concentration
Summary of the method: as §1

[4] = system: Aspergillus niger IFO 6342; assay: Antifungal activity, agar-dilution MIC, organism No. 30; conditions: Aspergillus niger, IFO6342; Organism No. 30, bouillon-agar; read-out: Minimum Inhibitory Concentration
Summary of the method: as §1

[5] = system: Streptococcus faecium IFO 3826; assay: Antibacterial activity, agar-dilution MIC, organism No. 27; conditions: Enterococcus faecium, IFO3826; Organism No. 27, bouillon-agar; read-out: Minimum Inhibitory Concentration
Summary of the method: as §1

[6] = system: Pseudomonas aeruginosa PAO 1; assay: Antibacterial activity, agar-dilution MIC, organism No. 17; conditions: Pseudomonas aeruginosa, PAO1; Organism No. 17, bouillon-agar; read-out: Minimum Inhibitory Concentration
Summary of the method: as §1

[7] = system: Salmonella typhimurium IID 971; assay: Antibacterial activity, agar-dilution MIC, organism No. 8; conditions: Salmonella enterica; Organism No. 8, bouillon-agar; read-out: Minimum Inhibitory Concentration
Summary of the method: as §1

[8] = system: Escherichia coli NIHJ-JC-2; assay: Antibacterial activity, agar-dilution MIC, organism No. 5; conditions: Escherichia coli, NIHJJC2; Organism No. 5, bouillon-agar; read-out: Minimum Inhibitory Concentration
Summary of the method: as §1

[9] = system: Proteus mirabilis IFO 3849; assay: Antibacterial activity, agar-dilution MIC, organism No. 19; conditions: Proteus mirabilis, IFO3849; Organism No. 19, bouillon-agar; read-out: Minimum Inhibitory Concentration
Summary of the method: as §1

[10] = system: Staphylococcus aureus FDA 209PJc-1; assay: Antibacterial activity, agar-dilution MIC, organism No. 1; conditions: Staphylococcus aureus, FDA209PJC1; Organism No. 1, bouillon-agar; read-out: Minimum Inhibitory Concentration
Summary of the method: as §1

Enterobacter cloacae 963 = assay: Antibacterial activity, agar-dilution MIC, organism No. 24; conditions: Enterobacter cloacae, 963; Organism No. 24, bouillon-agar; read-out: Minimum Inhibitory Concentration
Summary of the method: as §1

Proteus vulgaris HX-19 = assay: Antibacterial activity, agar-dilution MIC, organism No. 21; conditions: Proteus vulgaris, HX19; Organism No. 21, bouillon-agar; read-out: Minimum Inhibitory Concentration
Summary of the method: as §1

[11] = system: Salmonella paratyphi-A 1015; assay: Antibacterial activity, agar-dilution MIC, organism No. 10; conditions: Salmonella enterica, PARATYPHI, read-out: Minimum Inhibitory Concentration
Summary of the method: as §1

[12] = system: Proteus morganii IFO 3848; assay: Antibacterial activity, agar-dilution MIC, organism No. 18; conditions: Morganella morganii, IFO3848; Organism No. 18, bouillon-agar; read-out: Minimum Inhibitory Concentration
Summary of the method: as §1

[13] = system: Escherichia coli K12 C600 IAM 1264; assay: Antibacterial activity, agar-dilution MIC, organism No. 6; conditions: Escherichia coli, IAM1264; Organism No. 6, bouillon-agar; read-out: Minimum Inhibitory Concentration
Summary of the method: as §1

[14] = system: Pseudomonas aeruginosa NCTC 10490; assay: Antibacterial activity, agar-dilution MIC, organism No. 16; conditions: Pseudomonas aeruginosa, NCTC10490; Organism No. 16, bouillon-agar; read-out: Minimum Inhibitory Concentration
Summary of the method: as §1

[15] = system: Pseudomonas aeruginosa IFO 3445; assay: Antibacterial activity, agar-dilution MIC, organism No. 15; conditions: Pseudomonas aeruginosa, IFO3445; Organism No. 15, bouillon-agar; read-out: Minimum Inhibitory Concentration
Summary of the method: as §1

[16] = system: Staphylococcus aureus MS 353; assay: Antibacterial activity, agar-dilution MIC, organism No. 3; conditions: Staphylococcus aureus, MS353; Organism No. 3, bouillon-agar; read-out: Minimum Inhibitory Concentration
Summary of the method: as §1

[17] = system: Staphylococcus aureus Terajima; assay: Antibacterial activity, agar-dilution MIC, organism No. 2; conditions: Staphylococcus aureus; Organism No. 2, bouillon-agar; read-out: Minimum Inhibitory Concentration
Summary of the method: as §1

[18] = system: Enterobacter aerogenes ATCC 13048; assay: Antibacterial activity, agar-dilution MIC, organism No. 23; conditions: Klebsiella aerogenes, ATCC13048; Organism No. 23, bouillon-agar; read-out: Minimum Inhibitory Concentration
Summary of the method: as §1

[19] = system: Salmonella enteritidis G 14; assay: Antibacterial activity, agar-dilution MIC, organism No. 12; conditions: Salmonella enterica, ENTERITIDIS; Organism No. 12, bouillon-agar; read-out: Minimum Inhibitory Concentration
Summary of the method: as §1

[20] = system: Candida albicans IAM 4905; assay: Antifungal activity, agar-dilution MIC, organism No. 29; conditions: Candida albicans, IAM4905; Organism No. 29, bouillon-agar; read-out: Minimum Inhibitory Concentration
Summary of the method: as §1

[21] = system: Bacillus subtilis ATCC 6633; assay: Antibacterial activity, agar-dilution MIC, organism No. 14; conditions: Bacillus subtilis, ATCC6633; Organism No. 14, bouillon-agar; read-out: Minimum Inhibitory Concentration
Summary of the method: as §1

[22] = system: Salmonella shottmuelleri 8006; assay: Antibacterial activity, agar-dilution MIC, organism No. 11; conditions: Salmonella, 8006; Organism No. 11, bouillon-agar; read-out: Minimum Inhibitory Concentration
Summary of the method: as §1

[23] = system: Serratia marcescens IAM 1184; assay: Antibacterial activity, agar-dilution MIC, organism No. 13; conditions: Serratia marcescens, IAM1184; Organism No. 13, bouillon-agar; read-out: Minimum Inhibitory Concentration
Summary of the method: as §1

[24] = system: Streptococcus pyogenes Cook; assay: Antibacterial activity, agar-dilution MIC, organism No. 4; conditions: Streptococcus pyogenes; Organism No. 4, bouillon-agar; read-out: Minimum Inhibitory Concentration
Summary of the method: as §1

[25] = system: Proteus rettgeri IFO 3850; assay: Antibacterial activity, agar-dilution MIC, organism No. 22; conditions: Providencia rettgeri, IFO3850; Organism No. 22, bouillon-agar; read-out: Minimum Inhibitory Concentration
Summary of the method: as §1

Proteus vulgaris OX-19 = assay: Antibacterial activity, agar-dilution MIC, organism No. 20; conditions: Proteus vulgaris, OX19; Organism No. 20, bouillon-agar; read-out: Minimum Inhibitory Concentration
Summary of the method: as §1

[26] = system: Mycoplasma pneumoniae IID817; assay: Antimycoplasmal activity, MIC by phenol red colour change, organism No. 28; conditions: Mycoplasma, IID817; Organism No. 28, PPLO broth + 1% glucose, 37° C.; read-out: Minimum Inhibitory Concentration (MIC)
Procedure: Mycoplasma pneumoniae IID817 was used as the test microorganism in a culture medium prepared by adding 1% of glucose to "PPLO broth (manufactured by Difco Co.) liquid culture medium" at 37° C. with phenol red as an indicator, thereby culturing the test microorganism.

Salmonella typhi 901 = assay: Antibacterial activity, agar-dilution MIC, organism No. 9; conditions: Salmonella enterica, TYPHI, read-out: Minimum Inhibitory Concentration
Summary of the method: as §1

| Compound | MIC [1] | MIC [2] | MIC [3] | MIC [4] | MIC [5] | MIC [6] | MIC [7] | MIC [8] | MIC [9] | MIC [10] | MIC (Enterobacter cloacae 963) | MIC (Proteus vulgaris HX-19) | MIC [11] | MIC [12] | MIC [13] | MIC [14] | MIC [15] | MIC [16] | MIC [17] | MIC [18] | also measured |
| --- | --- | --- | --- | --- | --- | --- | --- | --- | --- | --- | --- | --- | --- | --- | --- | --- | --- | --- | --- | --- | --- |
| [C-]#[N+]C12CC3(/C=C/C(=O)Nc4ccccc4O)OC3C1O2 (stereo not drawn) [compound 58] | 0.2 µg/mL (≈ 0.704 µM) | 0.78 µg/mL (≈ 2.74 µM) | 3.13 µg/mL (≈ 11 µM) | 12.5 µg/mL (≈ 44 µM) | 12.5 µg/mL (≈ 44 µM) | > 200 µg/mL | 6.25 µg/mL (≈ 22 µM) | 12.5 µg/mL (≈ 44 µM) | 12.5 µg/mL (≈ 44 µM) | 3.13 µg/mL (≈ 11 µM) | 100 µg/mL (≈ 352 µM) | 0.78 µg/mL (≈ 2.74 µM) | 1.56 µg/mL (≈ 5.49 µM) | 1.56 µg/mL (≈ 5.49 µM) | 12.5 µg/mL (≈ 44 µM) | > 200 µg/mL | > 200 µg/mL | 3.13 µg/mL (≈ 11 µM) | 3.13 µg/mL (≈ 11 µM) | > 200 µg/mL | MIC [19]: 3.13 µg/mL (≈ 11 µM); MIC [20]: 12.5 µg/mL (≈ 44 µM); MIC [21]: 12.5 µg/mL (≈ 44 µM); MIC [22]: 1.56 µg/mL (≈ 5.49 µM); MIC [23]: 12.5 µg/mL (≈ 44 µM); MIC [24]: 12.5 µg/mL (≈ 44 µM); MIC [25]: 1.56 µg/mL (≈ 5.49 µM); MIC (Proteus vulgaris OX-19): 0.78 µg/mL (≈ 2.74 µM); MIC [26]: < 0.2 µg/mL; MIC (Salmonella typhi 901): 3.13 µg/mL (≈ 11 µM) |
| [C-]#[N+]C12CC3(/C=C/C(=O)Nc4ccc(N)cc4)OC3C1O2 (stereo not drawn) [compound 59] | 0.78 µg/mL (≈ 2.75 µM) | 3.13 µg/mL (≈ 11 µM) | 6.25 µg/mL (≈ 22.1 µM) | 12.5 µg/mL (≈ 44.1 µM) | 100 µg/mL (≈ 353 µM) | > 200 µg/mL | 12.5 µg/mL (≈ 44.1 µM) | 25 µg/mL (≈ 88.2 µM) | > 200 µg/mL | 6.25 µg/mL (≈ 22.1 µM) | > 200 µg/mL | 1.56 µg/mL (≈ 5.51 µM) | 6.25 µg/mL (≈ 22.1 µM) | 3.13 µg/mL (≈ 11 µM) | 25 µg/mL (≈ 88.2 µM) | > 200 µg/mL | > 200 µg/mL | 6.25 µg/mL (≈ 22.1 µM) | 25 µg/mL (≈ 88.2 µM) | > 200 µg/mL | MIC [19]: 6.25 µg/mL (≈ 22.1 µM); MIC [20]: 12.5 µg/mL (≈ 44.1 µM); MIC [21]: 12.5 µg/mL (≈ 44.1 µM); MIC [22]: 6.25 µg/mL (≈ 22.1 µM); MIC [23]: 200 µg/mL (≈ 706 µM); MIC [24]: 50 µg/mL (≈ 176 µM); MIC [25]: 200 µg/mL (≈ 706 µM); MIC (Proteus vulgaris OX-19): 1.56 µg/mL (≈ 5.51 µM); MIC [26]: < 0.2 µg/mL; MIC (Salmonella typhi 901): 6.25 µg/mL (≈ 22.1 µM) |
| [C-]#[N+]C12CC3(/C=C/C(=O)Nc4cccc(N)c4)OC3C1O2 (stereo not drawn) [compound 60] | 0.39 µg/mL (≈ 1.38 µM) | 1.56 µg/mL (≈ 5.51 µM) | 3.13 µg/mL (≈ 11 µM) | 100 µg/mL (≈ 353 µM) | 50 µg/mL (≈ 176 µM) | > 200 µg/mL | 12.5 µg/mL (≈ 44.1 µM) | 25 µg/mL (≈ 88.2 µM) | > 200 µg/mL | 3.13 µg/mL (≈ 11 µM) | 200 µg/mL (≈ 706 µM) | 0.39 µg/mL (≈ 1.38 µM) | 3.13 µg/mL (≈ 11 µM) | 1.56 µg/mL (≈ 5.51 µM) | 25 µg/mL (≈ 88.2 µM) | > 200 µg/mL | > 200 µg/mL | 3.13 µg/mL (≈ 11 µM) | 12.5 µg/mL (≈ 44.1 µM) | > 200 µg/mL | MIC [19]: 6.25 µg/mL (≈ 22.1 µM); MIC [20]: 25 µg/mL (≈ 88.2 µM); MIC [21]: 12.5 µg/mL (≈ 44.1 µM); MIC [22]: 3.13 µg/mL (≈ 11 µM); MIC [23]: 200 µg/mL (≈ 706 µM); MIC [24]: 25 µg/mL (≈ 88.2 µM); MIC [25]: > 200 µg/mL; MIC (Proteus vulgaris OX-19): 0.39 µg/mL (≈ 1.38 µM); MIC [26]: < 0.2 µg/mL; MIC (Salmonella typhi 901): 3.13 µg/mL (≈ 11 µM) |
